How the values were obtained:
[1] = tested on: anti-OVA-specific IgG2a subclass antibody; assay: Adjuvant activity test: anti-OVA-specific IgG2a subclass antibody in serum of OVA-immunized mice (ELISA); format: in vivo, BALB/c mice; details: after secondary immunization, serum 2 weeks later; OVA 5 μg + compound 0.256 μmol in 5% αCD-added saline (Addavax mixed with saline at 1:1), dorsal-subcutaneous; compared to OVA single administration group
Procedure: (§1) 8-Week-old female BALB/c mice were divided into groups (N=6), and each group was primarily immunized by dorsal-subcutaneous administration of (1) ovalbumin (OVA) (5 μg) dissolved in saline as an antigen (OVA single administration group), (2) OVA 5 μg and Addavax™ (mixed with saline at 1:1) dissolved in saline (Addavax™ administration group) as positive control adjuvant, (3) OVA 5 μg and SZ137 0.256 μmol dissolved or dispersed in 5% α-cyclodextrin (hereinafter to be simply referred to as αCD)-added saline (SZ137 administration group), (4) OVA (5 μg) and SZ138 (0.256 μmol) dissolved or dispersed in 5% αCD-added saline (SZ138 administration group), (5) OVA (5 μg) and SZ142 (0.256 μmol) dissolved or dispersed in 5% αCD-added saline (SZ142 administration group), (6) OVA (5 μg) and SZ144 (0.256 μmol) dissolved or dispersed in 5% αCD-added saline (SZ144 administration group), (7) OVA (5 μg) and SZ145 (0.256 μmol) dissolved or dispersed in 5% αCD-added saline (SZ145 administration group), (8) OVA (5 μg) and SZ146 (0.256 μmol) dissolved or dispersed in 5% αCD-added saline (SZ146 administration group), (9) OVA (5 μg) and SZ147 (0.256 μmol) dissolved or dispersed in 5% αCD-added saline (SZ147 administration group), (10) OVA (5 μg) and SZ148 (0.256 μmol) dissolved or dispersed in 5% αCD-added saline (SZ148 administration group), each per mouse. Two week later, the secondary immunization was carried out by dorsal-subcutaneous administration of solutions or dispersions similar to those of the above-mentioned (1)-(10) again. Two weeks from the secondary immunization, the whole blood was extracted under anesthesia, and the obtained serum sample was measured for anti-OVA-specific IgG1 subclass antibody, anti-OVA-specific IgG2a subclass antibody, and anti-OVA-specific IgE antibody.
(§2) The measurement method of the anti-OVA-specific IgG1 subclass antibody and anti-OVA-specific IgG2a subclass antibody in Experimental Example 1 and the following Experimental Examples 2-10 is as follows.
(§3) To a 96 well plate was added 5 μg/ml OVA at 100 µl/well, and the mixture was incubated at 4° C. overnight. After incubation, the mixture was washed three times with 200 μl of PBS-T (PBS (phosphate buffered saline)+0.05% (v/v) Tween 20) per well, and blocked with 100 μl of 5% FCS (fetal calf serum)/PBS solution per well at room temperature for 1-2 hr. Thereafter, the mixture was washed three times with PBS-T (200 μl/well), a diluted serum sample (100 l/well) or the same amount of 5% FCS/PBS solution as a control was added, and the mixture was incubated at 37° C. for 1 hr. To calculate concentration of the antibody, the standard of an anti-OVA-specific IgG1 subclass antibody diluted with 2% FCS/PBS solution was added at 100 ng/ml, 50 ng/ml, 25 ng/ml, 12.5 ng/ml, 6.25 ng/ml, 3.125 ng/ml, 1.56 ng/ml, 0.781 ng/ml, 0.391 ng/ml, 0.195 ng/ml, 0.098 ng/ml, 0 ng/ml, per 1 well. When an anti-OVA-specific IgG2a subclass antibody was measured, the standard of an anti-OVA-specific IgG2a subclass antibody was added at 50 ng/ml, 25 ng/ml, 12.5 ng/ml, 6.25 ng/ml, 3.125 ng/ml, 1.56 ng/ml, 0.781 ng/ml, 0.391 ng/ml, 0.195 ng/ml, 0.098 ng/ml, 0.049 ng/ml, 0 ng/ml, per 1 well. Thereafter, similar to the samples, the mixture was washed five times with PBS-T (200 μl/well), a diluted biotinylated anti-mouse IgG1 antibody and IgG2a antibody were added (100 μl/well), and the mixture was incubated at 37° C. for 45 min. Thereafter, the mixture was washed five times with PBS-T (200 μl/well), a diluted anti-biotin-HRP antibody was added (100 μl/well), and the mixture was incubated at 37° C. for another 30 min. Thereafter, the mixture was washed five times with PBS-T (200 μl/well), TMB substrate solution was added (100 μl/well), and the mixture was incubated at room temperature for 10-15 min. Thereafter, a reaction quenching liquid (2N sulfuric acid solution) was added (50 l/well) to discontinue a color developing reaction, and the absorbance (OD Value=450 nm) was measured by a microplate reader. […]

[2] = tested on: anti-OVA-specific IgG1 subclass antibody; assay: Adjuvant activity test: anti-OVA-specific IgG1 subclass antibody in serum of OVA-immunized mice (ELISA); format: in vivo, BALB/c mice; details: after secondary immunization, serum 2 weeks later; OVA 5 μg + compound 0.256 μmol in 5% αCD-added saline (Addavax mixed with saline at 1:1), dorsal-subcutaneous; compared to OVA single administration group
Procedure: as §1, §2, §3

| SMILES | anti-OVA-specific IgG2a subclass antibody production [1] | anti-OVA-specific IgG1 subclass antibody production [2] |
| --- | --- | --- |
| CCCCCCCCCCCCCCCC(=O)N[C@@H](CCCNC(=N)N)C(=O)NCCCCCCCCCCCC.Cl [SZ111, N-[(1S)-1-(dodecylcarbamoyl)-4-guanidino-butyl]hexadecanamide hydrochloride] | significantly increased | significantly increased |
| CCCCCCCCCCCCCCCCCCCCCC(=O)N[C@@H](CCCNC(=N)N)C(=O)NCCCCCCCCCCCC.Cl [SZ138, N-[(1S)-1-(dodecylcarbamoyl)-4-guanidino-butyl]docosanamide hydrochloride] | showed a tendency to increase | showed a tendency to increase |
| CCCCCCCCCCCCCCCCCCCCCC(=O)N[C@@H](CC(C)C)C(=O)NCCCCCCCCCCC [SZ142, N-[(1S)-3-methyl-1-(undecylcarbamoyl)butyl]docosanamide] | showed a tendency to increase | showed a tendency to increase |
| CCCCCCCCCCCCCCCC(=O)N[C@@H](CC(C)C)C(=O)NCCCCCCCCCCCC [SZ144, N-[(1S)-1-(dodecylcarbamoyl)-3-methyl-butyl]hexadecanamide] | showed a tendency to increase | showed a tendency to increase |
| CCCCCCCCCCCCCCCCCCCCCC(=O)N[C@@H](C)C(=O)NCCCCCCCCCCCC [SZ145, N-[(1S)-2-(dodecylamino)-1-methyl-2-oxo-ethyl]docosanamide] | showed a tendency to increase | showed a tendency to increase |
| CCCCCCCCCCCCCCCCCCCCCC(=O)NC(C)(C)C(=O)NCCCCCCCCCCCC [SZ146, N-[2-(dodecylamino)-1,1-dimethyl-2-oxo-ethyl]docosanamide] | showed a tendency to increase | showed a tendency to increase |
| CCCCCCCCCCCCCCCCCCCCCC(=O)NCCC(=O)NCCCCCCCCCCCC [SZ147, N-[3-(dodecylamino)-3-oxo-propyl]docosanamide] | showed a tendency to increase | showed a tendency to increase |
| CCCCCCCCCCCCCCCCCCCCCC(=O)NCC(C)(C)C(=O)NCCCCCCCCCCCC [SZ148, N-[3-(dodecylamino)-2,2-dimethyl-3-oxo-propyl]docosanamide] | showed a tendency to increase | showed a tendency to increase |
| CCCCCCCCCCCCCCCCOC(=O)N[C@@H](CCCNC(=N)N)C(=O)NCCCCCCCCCCCC.Cl [SZ150, Hexadecyl N-[(1S)-1-(dodecylcarbamoyl)-4-guanidino-butyl]carbamate hydrochloride] | significantly increased | significantly increased |
| CCCCCCCCCCCCCCCC(=O)N[C@@H](CCCCN)C(=O)NCCCCCCCCCCCC.Cl [SZ153, N-[(1S)-5-amino-1-(dodecylcarbamoyl)pentyl]hexadecanamide hydrochloride] | significantly increased | significantly increased |
| CCCCCCCCCCCCCCCCCCCCCC(=O)N[C@@H](CCCC)C(=O)NCCCCCCCCCCCC [SZ155, N-[(1S)-1-(dodecylcarbamoyl)pentyl]docosanamide] | showed a tendency to increase | showed a tendency to increase |
| CCCCCCCCCCCCCCCCCCCCCC(=O)N1CCC(C(=O)NCCCCCCCCCCCC)CC1 [SZ156, 1-docosanoyl-N-dodecyl-piperidine-4-carboxamide] | showed a tendency to increase | showed a tendency to increase |
| CCCCCCCCCCCCCCCCCCCCCC(=O)N[C@@H](CCCNC(=N)N)C(=O)N(CCCCCCC)CCCCCCC.Cl [SZ159, N-[(1S)-1-(diheptylcarbamoyl)-4-guanidino-butyl]docosanamide hydrochloride] | showed a tendency to increase | showed a tendency to increase |
| CCCCCCCCCCCCCCCCCCCCCC(=O)N[C@@H](CCCCN)C(=O)NCCCCCCCCCCCC.Cl [SZ160, N-[(1S)-5-amino-1-(dodecylcarbamoyl)pentyl]docosanamide hydrochloride] | showed a tendency to increase | showed a tendency to increase |
| CCCCCCCC/C=C/CCCCCCCC(=O)N[C@@H](CCCNC(=N)N)C(=O)NCCCCCCCCCCCC.Cl [SZ161, (E)-N-[(1S)-1-(dodecylcarbamoyl)-4-guanidino-butyl]octadeca-9-enamide hydrochloride] | significantly increased | significantly increased |
| CCCCCCCCCCCCCCCCCCCCCC(=O)N[C@@H](CCCNC(=N)N)C(=O)NCCCCCCC.Cl [SZ163, N-[(1S)-4-guanidino-1-(heptylcarbamoyl)butyl]docosanamide hydrochloride] | tended to increase | tended to increase |
| CCCCCCCCCCCCCCCCCCCCCC(=O)N[C@@H](CCCN)C(=O)NCCCCCCCCCCCC.Cl [SZ165, N-[(1S)-4-amino-1-(dodecylcarbamoyl)butyl]docosanamide hydrochloride] | tended to increase | tended to increase |
| CCCCCCCCCCCCCCCCCCCCCC(=O)N[C@@H](CCCCNC(=N)N)C(=O)NCCCCCCCCCCCC.Cl [SZ166, N-[(1S)-1-(dodecylcarbamoyl)-5-guanidino-pentyl]docosanamide hydrochloride] | tended to increase | tended to increase |
| CCCCCCCCCCCCCCCCCCCCCC(=O)N[C@@H](CCCCNC(C)=O)C(=O)NCCCCCCCCCCCC [SZ167, N-[(1S)-5-acetamide-1-(dodecylcarbamoyl)pentyl]docosanamide] | tended to increase | tended to increase |
| CCCCCCCCCCCCCCCCNC(=O)N[C@@H](CCCNC(=N)N)C(=O)NCCCCCC.Cl [SZ168, (2S)-5-guanidino-2-(hexadecylcarbamoylamino)-N-hexyl-pentanamide hydrochloride] | tended to increase | tended to increase |
| CCCCCCCCCCCCCCCCCC(=O)N[C@@H](CCCCNC(=N)N)C(=O)NCCCCCC.Cl [SZ206, N-[(1S)-1-(hexylcarbamoyl)-5-guanidino-pentyl]octadecanamide hydrochloride] | significant enhancement |  |
